Experimental findings from ChEMBL document CHEMBL1133677, “Carbonic anhydrase and matrix metalloproteinase inhibitors: sulfonylated amino acid hydroxamates with MMP inhibitory properties act as efficient inhibitors of CA isozymes I, II, and IV, and N-hydroxysulfonamides inhibit both these zinc enzymes” (J Med Chem, 2000) are described below.

Assay [1] has as its target Carbonic anhydrase 1 (Homo sapiens, UniProt P00915).
Assay [2] deals with Carbonic anhydrase 2 (Homo sapiens, UniProt P00918).
Assay [3] addresses T1, Carbonic anhydrase 4 (Bos taurus, UniProt Q95323).
T1 sequence (Q95323 whole entry): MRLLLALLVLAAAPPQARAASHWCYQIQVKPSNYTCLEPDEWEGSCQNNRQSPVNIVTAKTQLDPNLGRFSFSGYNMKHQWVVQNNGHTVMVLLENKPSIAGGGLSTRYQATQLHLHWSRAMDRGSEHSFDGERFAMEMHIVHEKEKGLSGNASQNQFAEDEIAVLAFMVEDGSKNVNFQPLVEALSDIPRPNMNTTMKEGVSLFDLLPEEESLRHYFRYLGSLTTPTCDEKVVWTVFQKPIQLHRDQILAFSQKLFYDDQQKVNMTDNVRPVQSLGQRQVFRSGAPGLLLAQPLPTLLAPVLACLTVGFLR

Sequence of Carbonic anhydrase 1 (P00915 whole entry): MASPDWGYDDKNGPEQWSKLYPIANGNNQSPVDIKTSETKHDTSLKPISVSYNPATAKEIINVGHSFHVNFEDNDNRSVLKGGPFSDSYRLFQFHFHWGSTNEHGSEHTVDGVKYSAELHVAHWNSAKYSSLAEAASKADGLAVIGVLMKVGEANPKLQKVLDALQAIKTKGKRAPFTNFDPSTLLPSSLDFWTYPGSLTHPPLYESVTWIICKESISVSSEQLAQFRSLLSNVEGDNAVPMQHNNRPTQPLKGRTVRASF

Turning to `O=C(O)c1ccccc1S(=O)(=O)NO`, the Ki – broadly, the dissociation constant of the complex between target and ligand, obtained from inhibition or displacement – in assay [1] was determined as 25000 nM; in assay [2], 0.9 nM; in assay [3], 12 nM.

With `Cc1cc(C)c(S(=O)(=O)NO)c(C)c1`, the Ki in assay [1] was found to be 72000 nM; in assay [2], 62 nM; in assay [3], 156 nM.

Regarding `O=S(=O)(NO)c1ccc(I)cc1`, the Ki stood at 15000 nM in assay [1], 13 nM in assay [2] and 45 nM in assay [3].

In the case of `COc1ccc(S(=O)(=O)NC(C(=O)NO)C(C)C)cc1` (stereo unspecified), the inhibition constant Ki in assay [1] amounted to 33 nM; in assay [2], 39 nM; in assay [3], 38 nM.

As for `COc1ccc(S(=O)(=O)NO)cc1N`, the Ki in assay [1] was 41000 nM; in assay [2], 44 nM; in assay [3], 136 nM.

Regarding `COc1ccc(S(=O)(=O)NC(CC(C)C)C(=O)NO)cc1` (stereo unspecified), the Ki in assay [1] was 50 nM; in assay [2], 5 nM; in assay [3], 39 nM.

In the case of `CC(C)C(C(=O)NO)N(Cc1ccccc1)S(=O)(=O)c1c(F)c(F)c(F)c(F)c1F` (stereo unspecified), the Ki in assay [1] turned out to be 88 nM; in assay [2], 45 nM; in assay [3] it was 48 nM.
